In US11524010B2, “Substituted quinazoline sulfonamides as thioredoxin interacting protein (TXNIP) inhibitors” (SOUTHERN RESEARCH INSTITUTE, priority 2017, dated 2022):
Entries after “also recorded” stand apart in the source; their conditions may differ.

Columns and labels:
TXNIP [1] = test: Inhibition of glucose-induced endogenous TXNIP expression in INS-1 cells (qRT-PCR); assay type: cell-based, Rat; settings: 25 mM glucose; for inhibition at 1.5 µM / inhibition at 12.5 µM: Rattus norvegicus, INS1, 24 h
Experimental: The Rat INS-1 cell line was obtained from UAB and maintained in RPMI-1640 (Invitrogen #11875) supplemented with 10% fetal bovine serum (FBS), 100 U/ml penicillin and […] streptomycin, 10 mM HEPES, 1 mM Sodium Pyruvate, 50 μM 2-Mercaptoethanol, and 11.1 mM Glucose in a humidified incubator with a 5% C02 atmosphere at 37° C. 4×10^4 cells per well were seeded to 96-well plate and incubated at 37° C. overnight. A subset of the cells were then cultured in medium with 5 mM Glucose for 24 hrs and then treated in medium with 25 mM glucose with or without compounds to be tested for another 24 hrs.
For the primary high throughput screening (HTS) assay, stably transfected, monoclonal INS-1 cells were split using Trypsin (2 ml per T75 flask) and seeded at a density of 10^4/well in a 384-well plate and incubated overnight at low, 5 mM glucose. The next day, the medium was changed to high glucose (25 mM) or high glucose plus the small molecules to be tested and luciferase assays were performed 24 h later. […] For secondary screens, total RNA was extracted from 96-well cultured cells using RNeasy 96 kit (Qiagen #74181) following the manufacturer's protocol using spin technology. Then a one-step qRT-PCR amplification was performed using QuantiFast SYBR Green RT-PCR kit (Qiagen #204154) and was carried out in a 10 μl reaction which consisted of 2 μl RNA, 0.5 μM each of primers (Rat TXNIP 5′ primer: […] (SEQ ID NO:1) and Rat TXNIP 3′ primer: […] (SEQ ID NO:2); Or Rat 18S rRNA 5′ primer: […] (SEQ ID NO:3) and Rat 18S rRNA 3′ primer: […]) (SEQ ID NO:4), 5 μl 2×SYBR Green Master Mix, 0.1 μl 10× QuantiFast RT Mix. The SYBR Green assay was performed using a LightCycler 480 II (Roche Applied Science) with an initial incubation at 50° C. for 10 min for RT followed by denaturation at 95° C. for 5 min. Forty cycles of amplification were performed using a thermal cycling profile of 95° C. for 10s, 60° C. for 30 s. Subsequently, a melting curve was recorded by holding at 95° C. for 60 s, cooling to 60° C. for 60 s, and then heating at 0.11° C./s up to 95° C. The data was collected and analyzed using the LightCycler 480 Software Release 1.5.0 SP3. The relative amount of TXNIP mRNA was normalized to 18 s rRNA level as a housekeeping gene, and the data was analyzed according to the 2^−ΔΔCT method (1). The transformed data was expressed as % inhibition and compound IC50 calculated by a 4-parameter logistic fit of the data using GraphPad Prism 7.

INS-1 cells = test: INS-1 cell viability (Cell Titer-Glo, ATP); assay type: cell-based, Rat; settings: 72 hrs treatment, hydrochloride
Experimental: (§1) INS-1 cell viability was determined based on quantification of ATP using Cell Titer-Glo Luminescent Cell Viability Assay kit (Promega #G7572), which indicates the presence of metabolically active cells. Briefly, INS-1 cells were seeded into 96-well plates at a cell density of 4.5×10^4 and 3.5×10^4 cells per well and incubated overnight at 37° C. with 5% CO2. On the following day, cells were treated with compounds for 24 hrs and 72 hrs respectively. Cell Titer-Glo reagent was added to the cells and Luminescence was acquired on Synergy 4 Reader ([…]).

wild-type mice = test: Oral administration to wild-type mice (glucose, glucagon, hepatic glucose production, lipids); assay type: in vivo
Experimental: Compound #11a was administered for three weeks in the drinking water of wild-type mice at about 100 mg/kg/d.
Further studies of hepatic glucose production and whole body glucose turnover, i.e., peripheral glucose uptake into muscle and adipose tissue, were performed using hyperinsulinemic-euglycemic clamp studies.

alpha TC1-6 cells = test: Glucagon secretion of alpha TC1-6 cells; assay type: cell-based; settings: incubation of alpha TC1-6 cells with compound
STZ-diabetic mice = test: Multiple low-dose STZ-induced diabetes in mice; assay type: in vivo
Experimental: After having been rendered overtly diabetic by multiple low-dose STZ injections, mice received compound #11a by gavage at a dose of 100 mg/kg b.i.d or 30 mg/kg b.i.d. or received a vehicle control.

db/db mice = test: Obese diabetic db/db mice (Type 2 diabetes model); assay type: in vivo; settings: oral, 4 weeks
Experimental: Obese, insulin-resistant and diabetic, leptin receptor-deficient db/db mice were administered compound #11a as described above for 4 weeks. […] In addition, they can lower liver and serum lipid levels

[2] = INS-1 cell viability (Cell Titer-Glo, ATP); assay type: cell-based, Rat; settings: rat, INS-1 cells, 72 hrs treatment
Experimental: as §1

TXNIP [3] = test: TXNIP expression in isolated primary human islets; assay type: cell-based
Experimental: (§2) Isolated primary human islets were cultured in the presence or absence of compound #11 (Table 1).

primary human islets = test: Cytokine-induced β-cell apoptosis in primary human islets; assay type: cell-based; settings: Type 1 diabetes associated cytokines
Experimental: as §2

[4] = about 100 mg/kg/d in drinking water, three weeks
[5] = vs untreated db/db, hydrochloride

SMILES | inhibition at 1.5 µM (TXNIP [1]; 1.5 μM compound) [%] | inhibition at 12.5 µM (TXNIP [1]; 12.5 μM compound) [%] | CC50 at 72 h [2] [µM] | further results
CS(=O)(=O)NCC1CCCN(c2ncnc3ccc(C(F)(F)F)cc23)C1.Cl (centres unmarked) [Compound 11a, N-((1-(6-(trifluoromethyl)quinazolin-4-yl)piperidin-3-yl)methyl)methanesulfonamide hydrochloride] | – | – | – | TXNIP % Inhibition at 1.5 μM (TXNIP [1]; 1.5 μM compound, 24 hrs): 35%; TXNIP % Inhibition at 12.5 μM (TXNIP [1]; 12.5 μM compound, 24 hrs): 57%; CC50 (INS-1 cells): > 100 µM; blood glucose levels (wild-type mice; [4]): small but significant decrease; body weight (wild-type mice; [4]): no change; gross abnormalities in organs upon sacrifice (wild-type mice; [4]): no gross abnormalities; fasting serum glucagon levels (wild-type mice; about 100 mg/kg/d in drinking water, vs control): decreased; basal hepatic glucose production (wild-type mice; hyperinsulinemic-euglycemic clamp, vs control): significant decrease; liver triglyceride levels (wild-type mice; oral, vs control): two-fold lower; serum non-esterified fatty acids (wild-type mice; oral, vs control): significantly lower; serum triglycerides (wild-type mice; oral, vs control): significantly lower; glucagon secretion (alpha TC1-6 cells): decreased; blood glucose levels (STZ-diabetic mice; STZ (day 1-5) wild-type mice, oral compound day 5-15, vs untreated STZ mice): significantly lower; body weight (STZ-diabetic mice; STZ-treated mice, oral 100 mg/kg/d, hydrochloride, 100 mg/kg/day): no detrimental effect; also recorded: maintained a normal body weight; detrimental effects or abnormalities (STZ-diabetic mice; STZ-treated mice, oral 100 mg/kg/d, throughout experiment, sacrifice and dissection): no detrimental effects or abnormalities; protection against diabetes (STZ-diabetic mice; oral 100 mg/kg/d starting after multiple low-dose STZ regimen): effectively protected; blood glucose levels (STZ-diabetic mice; overtly diabetic STZ mice, gavage 100 mg/kg b.i.d or 30 mg/kg b.i.d., vs vehicle): significantly decreased in a dose-dependent manner; fasting serum glucagon levels (db/db mice): significant decrease; blood glucose levels (db/db mice; [5]): significantly lower; also recorded: decreased significantly; body weight (db/db mice; [5]): no significant effect; also recorded: no difference
CS(=O)(=O)NCC1CCCN(c2ncnc3ccc(C(F)(F)F)cc23)C1 (centres unmarked) [Compound 11, N-((1-(6-(trifluoromethyl)quinazolin-4-yl)piperidin-3-yl)methyl)methanesulfonamide] | 45 | 53 | 56 | pro-inflammatory cytokine-induced TXNIP expression (TXNIP [3]; Type 1 diabetes associated cytokines): protected; glucose-induced TXNIP expression (TXNIP [3]; high glucose, vs DMSO control): inhibition of TXNIP expression; also recorded: specifically inhibited; cytokine-induced β-cell apoptosis / death (primary human islets): inhibits; also recorded: protected
O=S(=O)(NCC1CCCN(c2ncnc3ccc(C(F)(F)F)cc23)C1)c1ccc(Cl)cc1 (centres unmarked) [Compound 56, 4-chloro-N-((1-(6-(trifluoromethyl)quinazolin-4-yl)piperidin-3-yl)methyl)benzenesulfonamide] | 19 | 30 | 17 | –
Cc1cc2ncnc(N3CCCC(CNS(C)(=O)=O)C3)c2cc1F (centres unmarked) [Compound 22, N-((1-(6-fluoro-7-methylquinazolin-4-yl)piperidin-3-yl)methyl)methanesulfonamide] | 15 | 34 | > 100 | –
CS(=O)(=O)NCC1CCCN(c2ncnc3ccc(NC(=O)c4ccccn4)cc23)C1 (centres unmarked) [Compound 28, N-(4-(3-(methylsulfonamidomethyl)piperidin-1-yl)quinazolin-6-yl)picolinamide] | 4 | 5 | > 100 | –
CS(=O)(=O)NCC1CCCN(c2nc[n+]([O-])c3ccc(C(F)(F)F)cc23)C1 (centres unmarked) [Compound 61, 4-(3-(methylsulfonamidomethyl)piperidin-1-yl)-6-(trifluoromethyl)quinazoline 1-oxide] | 2 | 25 | > 100 | –
COc1cc2ncnc(N3CCCC(CNS(C)(=O)=O)C3)c2cc1OC (centres unmarked) [Compound 8, N-((1-(6,7-dimethoxyquinazolin-4-yl)piperidin-3-yl)methyl)methanesulfonamide] | 0 | 7 | > 100 | –
CS(=O)(=O)NCC1CCCN(c2ncnc3cc(F)c(C#N)cc23)C1 (centres unmarked) [Compound 29, N-((1-(6-cyano-7-fluoroquinazolin-4-yl)piperidin-3-yl)methyl)methanesulfonamide] | 39 | 66 | > 100 | –
CS(=O)(=O)NCC1CCCN(c2nc(N3CCOCC3)nc3ccccc23)C1 (centres unmarked) [Compound 17, N-((1-(2-morpholinoquinazolin-4-yl)piperidin-3-yl)methyl)methanesulfonamide] | 0 | 15 | > 100 | –
CS(=O)(=O)NCC1CCCN(c2ncnc3cc(F)ccc23)C1 (centres unmarked) [Compound 4, N-((1-(7-fluoroquinazolin-4-yl)piperidin-3-yl)methyl)methanesulfonamide] | 24 | 16 | > 100 | –
CS(=O)(=O)NCC1CCCN(c2nc(O)nc3ccc(C(F)(F)F)cc23)C1 (centres unmarked) [Compound 62, N-((1-(2-hydroxy-6-(trifluoromethyl)quinazolin-4-yl)piperidin-3-yl)methyl)methanesulfonamide] | 20 | 20 | > 100 | –
CS(=O)(=O)NCC1CCCN(c2ncnc3c(Cl)cc(F)cc23)C1 (centres unmarked) [Compound 10, N-((1-(8-chloro-6-fluoroquinazolin-4-yl)piperidin-3-yl)methyl)methanesulfonamide] | 23 | 51 | > 100 | –
CS(=O)(=O)NCC1CCCN(c2ncnc3cc(C(N)=O)c(F)cc23)C1 (centres unmarked) [Compound 21, 6-fluoro-4-(3-(methylsulfonamidomethyl)piperidin-1-yl)quinazoline-7-carboxamide] | 0 | 12 | > 100 | –
CC(C)N(CC1CCCN(c2ncnc3ccc(F)cc23)C1)S(=O)(=O)c1ccccc1 (centres unmarked) [Compound 42, N-((1-(6-fluoroquinazolin-4-yl)piperidin-3-yl)methyl)-N-isopropylbenzenesulfonamide] | 32 | 30 | 4 | –
